15 compounds from patent US20120238557A1, “AMINOTHIAZINE OR AMINOOXAZINE DERIVATIVE HAVING AMINO LINKER” (SHIONOGI & CO., LTD., priority 2009, published 2012) can be followed below.

Data set [1] deals with T1, hERG (IKr) (Homo sapiens, UniProt Q12809).
T1 construct: expressed in transfected cells; host or cells: HEK293
The experiment in a line: hERG test. To be noted: pH 7.4, HEK293 cells expressing hERG channel, whole cell patch clamp, concentration not given, read-out: % inhibition relative to the tail peak current (IKr). Format: cell-based. The source says: For the purpose of assessing risk of an electrocardiogram QT interval prolongation, effects on delayed rectifier K+ current (IKr), which plays an important role in the ventricular repolarization process, was studied using HEK293 cells expressing human ether-a-go-go related gene (hERG) channel.
After a cell was retained at a membrane potential of −80 mV by whole cell patch clamp method using an automated patch clamp system (PatchXpress 7000A, Axon Instruments Inc.), IKr induced by depolarization pulse stimulation at +40 mV for 2 seconds and, further, repolarization pulse stimulation at −50 mV for 2 seconds was recorded. […] From the recording IKr, an absolute value of the tail peak current was measured based on the current value at the resting membrane potential using an analysis software (DataXpress ver.1, Molecular Devices Corporation). Further, the % inhibition relative to the tail peak current before application of the test substance was calculated, and compared with the vehicle-applied group (0.1% dimethyl sulfoxide solution) to assess influence of the test substance on IKr.
On the technique in general: hERG is a cardiac potassium channel; its block is linked to QT prolongation.

Data set [2] has as its system Neuroblastoma SH-SY5Y cells (SH/APPwt) with human wild-type β-APP excessively expressed. Briefly: Measurement of β-amyloid (Aβ) production inhibitory effect in cell. Type of data set: cell-based. The protocol:
Neuroblastoma SH-SY5Y cells (SH/APPwt) with human wild-type β-APP excessively expressed therein were prepared at 8×10^5 cells/mL, and 150 μl portions thereof were inoculated into each well of a 96-well culture plate (Falcon). The cells were cultured for 2 hours at 37° C. in a 5% gaseous carbon dioxide incubator. Then, a solution which had been preliminarily prepared by adding and suspending the test compound (DMSO (dimethyl sulfoxide) solution) so as to be 2 μl/50 μl medium was added to the cell sap. Namely, the final DMSO concentration was 1%, and the amount of the cell culture was 200 μl. After the incubation was performed for 24 hours from the addition of the test compound, 100 μl of the culture supernatant was collected from each fraction. The amount of the Aβ in each fraction was measured.
The Aβ amount was measured as follows. 10 μl of a homogeneous time resolved fluorescence (HTRF) measurement reagent (Amyloid β 1-40 peptide; IBA Molecular Holding, S. A.) and 10 μl of the culture supernatant were put into a 384-well half area microplate (black microplate, Costar) and mixed with each other, and then left standing overnight at 4° C. while the light was shielded. Then, the fluorescence intensity (excitation wavelength: 337 nm, measurement wavelength: 620 nm and 665 nm) was measured with a Wallac 1420 multilabel counter (Perkin Elmer life sciences).

For data set [3], the target named is T2, CYP3A4 enzyme expressed in Escherichia coli (Homo sapiens, UniProt P08684).
T2 construct: host or cells: Escherichia coli
T2 sequence (P08684 whole entry): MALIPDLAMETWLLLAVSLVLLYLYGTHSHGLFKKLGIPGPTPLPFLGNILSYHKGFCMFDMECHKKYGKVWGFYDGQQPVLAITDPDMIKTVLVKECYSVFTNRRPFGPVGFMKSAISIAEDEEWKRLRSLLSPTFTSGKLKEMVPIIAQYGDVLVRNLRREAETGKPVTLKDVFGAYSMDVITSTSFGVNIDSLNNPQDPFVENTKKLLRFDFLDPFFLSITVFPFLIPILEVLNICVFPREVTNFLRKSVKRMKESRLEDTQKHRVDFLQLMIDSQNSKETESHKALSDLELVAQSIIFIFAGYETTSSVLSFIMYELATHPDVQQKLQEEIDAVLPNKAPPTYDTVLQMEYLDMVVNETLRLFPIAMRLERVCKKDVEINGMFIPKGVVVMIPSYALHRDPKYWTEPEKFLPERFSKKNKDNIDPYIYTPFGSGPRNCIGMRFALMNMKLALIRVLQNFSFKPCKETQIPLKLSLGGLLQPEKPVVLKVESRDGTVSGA
The experiment in a line: CYP3A4 fluorescent MBI test. Type of data set: in vitro ADME. To be noted: pre-reaction time 0 or 30 minutes; substrate 7-BFC. The protocol: The CYP3A4 fluorescent MBI test is a test of investigating enhancement of CYP3A4 inhibition of a compound by a metabolism reaction, and the test was performed using, as CYP3A4 enzyme expressed in Escherichia coli and employing, as an index, a reaction in which 7-benzyloxytrifluoromethylchmarin (7-BFC) is debenzylated by the CYP3A4 enzyme to produce a metabolite, 7-hydroxytrifluoromethylchmarin (HFC) emitting fluorescent light.
The reaction conditions were as follows: substrate, 5.6 μmol/L 7-BFC; pre-reaction time, 0 or 30 minutes; reaction time, 15 minutes; reaction temperature, 25° C. […]
An enzyme in a K-Pi buffer (pH 7.4) and a test drug solution as a pre-reaction solution were added to a 96-well plate at the composition of the pre-reaction, a part of it was transferred to another 96-well plate so that it was 1/10 diluted by a substrate in a K-Pi buffer, NADPH as a co-factor was added to initiate a reaction as an index (without preincubation) and, after a predetermined time of a reaction, acetonitrile/0.5 mol/L Tris(trishydroxyaminomethane)=4/1 was added to stop the reaction. […] For the plate on which each index reaction had been performed, a fluorescent value of 7-HFC which is a metabolite was measured with a fluorescent plate reader. […]

Data set [4] is described as follows: Solubility test. Format: physicochemical. To be noted: JP-I and JP-II media (2% DMSO stock added), aqueous buffer, kinetic from dmso stock, medium (JP-I, JP-II), turbidity after 4 hours. The protocol: A 2-fold dilution series (12 points) of a 10 mM solution of a test compound in DMSO was added to a medium (JP-I, JP-II) (2%), and solubility was assessed by 3 stages (High; >40 μM, Medium; 3-40 μM, Low; <3 μM) from a turbidity after 4 hours (crystallization information).

Data set [5] addresses T3, CYP2C9 (Homo sapiens, UniProt P11712).
T3 construct: enzyme, pooled human hepatic microsome 0.2 mg protein/mL; from tissue; host or cells: pooled human hepatic microsomes
Briefly: CYP inhibition test (CYP2C9). To be noted: pooled human hepatic microsome; tolbutamide methyl-hydroxylation. Type of data set: in vitro ADME. The protocol:
(§1) Using commercially available pooled human hepatic microsome, and employing, as markers, 7-ethoxyresorufin O-deethylation (CYP1A2), tolbutamide methyl-hydroxylation (CYP2C9), mephenyloin 4′-hydroxylation (CYP2C19), dextromethorphan O-demethylation (CYP2D6), and terfenedine hydroxylation (CYP3A4) as typical substrate metabolism reactions of human main five CYP enzyme forms (CYP1A2, 2C9, 2C19, 2D6, 3A4), an inhibitory degree of each metabolite production amount by a test compound was assessed. […] After the centrifugation at 3000 rpm for 15 minutes, resorufin (CYP1A2 metabolite) in the supernatant was quantified by a fluorescent multilabel counter and tolbutamide hydroxide (CYP2C9 metabolite), mephenyloin 4′ hydroxide (CYP2C19 metabolite), dextrorphan (CYP2D6 metabolite), and terfenadine alcohol (CYP3A4 metabolite) were quantified by LC/MS/MS. Addition of only DMSO being a solvent dissolving a drug to a reaction system was adopted as a control (100%), remaining activity (%) was calculated at each concentration of a test drug added as the solution and IC50 was calculated by reverse presumption by a logistic model using a concentration and an inhibition rate.

Data set [6] has as its target T4, CYP2D6 (Homo sapiens, UniProt P10635).
T4 construct: enzyme, pooled human hepatic microsome 0.2 mg protein/mL; from tissue; host or cells: pooled human hepatic microsomes
Briefly: CYP inhibition test (CYP2D6). Format: in vitro ADME. To be noted: pooled human hepatic microsome; dextromethorphan O-demethylation. The protocol: as §1

In data set [7] the target is T5, CYP2C19 (Homo sapiens, UniProt P33261).
T5 construct: enzyme, pooled human hepatic microsome 0.2 mg protein/mL; from tissue; host or cells: pooled human hepatic microsomes
T5 sequence (P33261 whole entry): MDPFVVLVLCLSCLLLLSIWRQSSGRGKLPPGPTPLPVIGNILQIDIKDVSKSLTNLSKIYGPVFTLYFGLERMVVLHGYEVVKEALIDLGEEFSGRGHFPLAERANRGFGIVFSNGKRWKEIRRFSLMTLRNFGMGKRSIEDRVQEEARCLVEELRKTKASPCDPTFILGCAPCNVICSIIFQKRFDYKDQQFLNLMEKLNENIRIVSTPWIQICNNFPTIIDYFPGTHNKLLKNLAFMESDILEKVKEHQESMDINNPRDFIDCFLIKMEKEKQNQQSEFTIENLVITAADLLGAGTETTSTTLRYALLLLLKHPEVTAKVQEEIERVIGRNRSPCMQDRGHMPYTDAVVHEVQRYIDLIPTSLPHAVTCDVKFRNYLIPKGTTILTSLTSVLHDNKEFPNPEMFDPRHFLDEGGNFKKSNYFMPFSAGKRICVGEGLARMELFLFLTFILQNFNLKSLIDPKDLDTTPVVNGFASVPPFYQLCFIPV
Briefly: CYP inhibition test (CYP2C19). Type of data set: in vitro ADME. To be noted: pooled human hepatic microsome; mephenyloin 4′-hydroxylation. The protocol:
as §1

In data set [8] the target is T6, CYP3A4 (Homo sapiens, UniProt P08684).
T6 construct: enzyme, pooled human hepatic microsome 0.2 mg protein/mL; from tissue; host or cells: pooled human hepatic microsomes
T6 sequence (P08684 whole entry): as the sequence (P08684 whole entry) above
Briefly: CYP inhibition test (CYP3A4). Type of data set: in vitro ADME. To be noted: pooled human hepatic microsome; terfenedine hydroxylation. The protocol:
as §1

For data set [9], the target named is T7, CYP1A2 (Homo sapiens, UniProt P05177).
T7 construct: enzyme, pooled human hepatic microsome 0.2 mg protein/mL; from tissue; host or cells: pooled human hepatic microsomes
T7 sequence (P05177 1-516): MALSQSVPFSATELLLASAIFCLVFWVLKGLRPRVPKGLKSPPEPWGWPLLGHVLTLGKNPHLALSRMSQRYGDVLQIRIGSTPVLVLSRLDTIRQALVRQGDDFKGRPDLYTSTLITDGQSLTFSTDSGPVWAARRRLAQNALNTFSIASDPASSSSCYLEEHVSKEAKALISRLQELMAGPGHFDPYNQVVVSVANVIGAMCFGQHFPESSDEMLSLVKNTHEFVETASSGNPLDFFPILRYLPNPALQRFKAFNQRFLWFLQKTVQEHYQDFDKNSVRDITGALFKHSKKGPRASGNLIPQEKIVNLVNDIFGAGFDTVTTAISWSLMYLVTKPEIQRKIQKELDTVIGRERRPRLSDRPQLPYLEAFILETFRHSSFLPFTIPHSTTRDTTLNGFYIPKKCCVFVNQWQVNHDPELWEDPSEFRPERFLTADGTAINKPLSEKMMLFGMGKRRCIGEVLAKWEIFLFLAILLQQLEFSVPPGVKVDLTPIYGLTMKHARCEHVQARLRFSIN
The experiment in a line: CYP inhibition test (CYP1A2). Format: in vitro ADME. Conditions: pooled human hepatic microsome; 7-ethoxyresorufin O-deethylation. The protocol:
as §1

Data set [10] in a line: Metabolism stability test. Format: in vitro ADME. Conditions: human liver microsomes 0.5 mg protein/mL, 1 mmol/L NADPH, 37° C., 30 minutes; 0 minute = 100%. The protocol:
Using a commercially available pooled human hepatic microsomes, a test compound was reacted for a constant time, a remaining rate was calculated by comparing a reacted sample and an unreacted sample, thereby, a degree of metabolism in liver was assessed.
A reaction was performed (oxidative reaction) at 37° C. for 0 minute or 30 minutes in the presence of 1 mmol/L NADPH in 0.2 mL of a buffer (50 mmol/L Tris-HCl pH 7.4, 150 mmol/L potassium chloride, 10 mmol/L magnesium chloride) containing 0.5 mg protein/mL of human liver microsomes. After the reaction, 50 μL of the reaction solution was added to 100 μL of a methanol/acetonitrile=1/1 (v/v), mixed and centrifuged at 3000 rpm for 15 minutes. The test compound in the supernatant was quantified by LC/MS/MS, and a remaining amount of the test compound after the reaction was calculated, letting a compound amount at 0 minute reaction time to be 100%.

The mark [11] stands for this setting: Aβ production in SH/APPwt cells, by the similar test, read-out: IC50 value.
Setting [12] is: amount needed to inhibit Aβ production by 50%, SH/APPwt cells, 24 hours, Table 3, read-out: IC50.

Like-named read-outs stand apart in the source and are kept apart here.

T3 sequence (P11712 whole entry): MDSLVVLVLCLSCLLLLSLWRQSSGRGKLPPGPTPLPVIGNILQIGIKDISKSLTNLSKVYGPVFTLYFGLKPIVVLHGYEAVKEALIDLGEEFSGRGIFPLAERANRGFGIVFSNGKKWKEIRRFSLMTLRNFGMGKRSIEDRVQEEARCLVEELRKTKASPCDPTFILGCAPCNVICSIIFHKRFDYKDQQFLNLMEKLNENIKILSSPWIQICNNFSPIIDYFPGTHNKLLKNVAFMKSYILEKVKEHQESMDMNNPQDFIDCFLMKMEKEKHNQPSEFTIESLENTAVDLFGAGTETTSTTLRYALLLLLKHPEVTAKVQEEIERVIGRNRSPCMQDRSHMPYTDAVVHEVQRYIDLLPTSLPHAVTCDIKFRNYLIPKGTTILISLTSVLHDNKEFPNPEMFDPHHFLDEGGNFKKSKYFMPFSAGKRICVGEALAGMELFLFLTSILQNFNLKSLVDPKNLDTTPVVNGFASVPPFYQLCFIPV
T1 sequence (Q12809 whole entry): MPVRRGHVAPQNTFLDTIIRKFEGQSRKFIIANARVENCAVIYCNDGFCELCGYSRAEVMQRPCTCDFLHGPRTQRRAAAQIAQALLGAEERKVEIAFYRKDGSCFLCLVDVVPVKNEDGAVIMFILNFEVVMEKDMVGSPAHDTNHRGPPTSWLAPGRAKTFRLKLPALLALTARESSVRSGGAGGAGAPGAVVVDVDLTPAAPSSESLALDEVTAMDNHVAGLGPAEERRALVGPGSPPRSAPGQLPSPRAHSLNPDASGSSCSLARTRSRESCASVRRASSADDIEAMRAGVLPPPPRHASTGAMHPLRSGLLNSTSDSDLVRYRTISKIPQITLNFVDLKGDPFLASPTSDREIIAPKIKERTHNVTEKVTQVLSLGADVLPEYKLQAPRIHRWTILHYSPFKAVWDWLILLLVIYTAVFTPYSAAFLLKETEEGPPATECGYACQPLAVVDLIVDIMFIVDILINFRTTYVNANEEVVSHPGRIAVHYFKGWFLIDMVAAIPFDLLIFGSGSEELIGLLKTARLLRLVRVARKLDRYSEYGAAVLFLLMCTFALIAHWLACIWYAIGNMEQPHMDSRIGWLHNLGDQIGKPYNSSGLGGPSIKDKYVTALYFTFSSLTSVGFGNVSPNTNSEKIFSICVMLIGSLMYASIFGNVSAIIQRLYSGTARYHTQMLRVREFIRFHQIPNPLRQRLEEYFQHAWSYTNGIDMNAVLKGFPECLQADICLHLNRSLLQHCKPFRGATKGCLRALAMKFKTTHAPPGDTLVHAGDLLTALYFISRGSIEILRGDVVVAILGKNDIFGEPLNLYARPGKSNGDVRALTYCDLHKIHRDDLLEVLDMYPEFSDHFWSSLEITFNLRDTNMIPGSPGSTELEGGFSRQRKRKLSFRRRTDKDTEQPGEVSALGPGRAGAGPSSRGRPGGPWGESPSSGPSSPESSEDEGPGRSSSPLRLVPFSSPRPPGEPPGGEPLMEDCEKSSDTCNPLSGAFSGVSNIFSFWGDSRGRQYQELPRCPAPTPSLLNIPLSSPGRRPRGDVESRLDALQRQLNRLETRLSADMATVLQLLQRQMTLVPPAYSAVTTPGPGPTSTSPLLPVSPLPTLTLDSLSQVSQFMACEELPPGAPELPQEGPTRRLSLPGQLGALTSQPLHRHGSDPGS
T4 sequence (P10635 whole entry): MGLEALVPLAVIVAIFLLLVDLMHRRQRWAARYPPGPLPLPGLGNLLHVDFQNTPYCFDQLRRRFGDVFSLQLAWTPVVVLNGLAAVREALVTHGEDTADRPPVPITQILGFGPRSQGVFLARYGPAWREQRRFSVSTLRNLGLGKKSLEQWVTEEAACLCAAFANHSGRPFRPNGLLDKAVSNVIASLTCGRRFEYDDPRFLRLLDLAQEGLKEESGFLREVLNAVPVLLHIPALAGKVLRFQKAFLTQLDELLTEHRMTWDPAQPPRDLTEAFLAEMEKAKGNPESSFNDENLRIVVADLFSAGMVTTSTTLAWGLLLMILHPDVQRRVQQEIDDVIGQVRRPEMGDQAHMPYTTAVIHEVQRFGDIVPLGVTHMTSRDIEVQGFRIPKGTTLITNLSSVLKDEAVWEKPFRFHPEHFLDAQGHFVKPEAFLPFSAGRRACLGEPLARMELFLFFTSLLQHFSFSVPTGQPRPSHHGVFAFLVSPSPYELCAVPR

A word on the inhibition: it is the relative decrease from the control value, in per cent. A word on the IC50: it is the concentration at which inhibition is half-maximal. In the case of `C[C@@]1(c2cc(Nc3ccncn3)ccc2F)CCSC(N)=N1` [Compound I-1], the inhibition at 10 min in [1] came to 3.2%. For the same compound, the IC50 in [2] (setting [11]) is not above 3000 nM.

Take `C[C@@]1(c2cc(Nc3ncccc3C#N)ccc2F)CCOC(N)=N1` [Compound I-3]: the “CYP3A4 MBI: difference between IC50 values” in [3] is “(−) (when the difference is 3 μM or less, this was defined as (−))”.

For `COc1cccnc1Nc1ccc(F)c([C@]2(C)CCOC(N)=N2)c1` [Compound I-6], the IC50 in [2] (setting [12]) stood at 16 nM.

One may read the solubility as how much of the substance goes into solution per volume. In turn, `C[C@@]1(c2cc(Nc3ncccc3C#N)ccc2F)C=CSC(N)=N1` [Compound I-9] came in with a solubility at 4 h in data set [4] of more than 40 µM.

As for `C[C@@]1(c2cc(Nc3ncccc3N)ccc2F)CCSC(N)=N1` [Compound I-10], the IC50 in [5] was more than 21000 nM; in data set [6] it was more than 21000 nM; in data set [7], more than 21000 nM; in [8], more than 21000 nM; in data set [2] (setting [11]), not above 3000 nM; in data set [9], more than 21000 nM.

Take `Cc1cccc(Nc2ccc(F)c([C@]3(C)CCSC(N)=N3)c2)n1` [Compound I-12]: the IC50 in [2] (setting [11]) is not above 3000 nM.

Consider `C[C@@]1(c2cc(Nc3ncccc3CO)ccc2F)CCSC(N)=N1` [Compound I-16], for which, in [2] (setting [11]), the IC50 is not above 3000 nM.

Consider `COc1cccnc1Nc1ccc(F)c([C@]2(C)CCSC(N)=N2)c1` [Compound I-18], for which the IC50 in [2] (setting [12]) worked out at 11 nM.

In the case of `COc1ccnc(Nc2ccc(F)c([C@]3(C)CCSC(N)=N3)c2)c1` [Compound I-19], in data set [2] (setting [11]), the IC50 is not above 3000 nM.

`COc1ccc(Nc2ccc(F)c([C@]3(C)CCSC(N)=N3)c2)nc1` [Compound I-20]: the IC50 in data set [2] (setting [11]) was not above 3000 nM.

For the compound `COCc1ccc(Nc2ccc(F)c([C@]3(C)CCSC(N)=N3)c2)nc1` [Compound I-23], the IC50 in data set [2] (setting [11]) was not above 3000 nM.

Regarding `CC(C)Oc1cccnc1Nc1ccc(F)c([C@]2(C)CCSC(N)=N2)c1` [Compound I-24], in data set [2] (setting [11]), the IC50 was not above 3000 nM.

In the case of `CCCCOC(=O)c1cccnc1Nc1ccc(F)c([C@]2(C)CCOC(N)=N2)c1` [Compound I-25], the IC50 in data set [2] (setting [11]) is not above 3000 nM.

Take `CC(C)OCc1ccc(Nc2ccc(F)c([C@]3(C)CCSC(N)=N3)c2)nc1` [Compound I-26]: in [2] (setting [11]), the IC50 was not above 3000 nM.

As to `C[C@@]1(c2cccc(Nc3ncccc3C#N)c2)CCSC(N)=N1` [Compound I-33], the “remaining amount of the test compound after the reaction” value in data set [10] is 95%.
